# From PubChem BioAssay (NCI)
#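 Growth conditions: 96-well plates. Treatment: test compound, 48 hours, 5 concentrations. Analysis: linear interpolation between bracketing concentrations; unreached endpoints set to highest concentration. GI50 is the concentration that inhibits growth by half. TGI denotes the concentration required for complete inhibition of growth.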
# What was measured:
# Experiment in all cases: growth of human tumour cells (NCI), 48 h
# [1] = tested on: 786-0 renal
# [2] = tested on: A549 NSCLC
# [3] = tested on: ACHN renal
# [4] = tested on: CAKI-1 renal
# [5] = tested on: CCRF-CEM leukemia
# [6] = tested on: COLO 205 colon
# [7] = tested on: DU-145 prostate
# [8] = tested on: EKVX NSCLC
# [9] = tested on: HCC-2998 colon
# [10] = tested on: HCT-116 colon
# [11] = tested on: HCT-15 colon
# [12] = tested on: HL-60(TB) leukemia
# [13] = tested on: HOP-62 NSCLC
# [14] = tested on: HOP-92 NSCLC
# [15] = tested on: HT29 colon
# [16] = tested on: IGROV1 ovarian
# [17] = tested on: K-562 leukemia
# [18] = tested on: KM12 colon
# [19] = tested on: LOX IMVI melanoma
# [20] = tested on: M14 melanoma
# [21] = tested on: MDA-MB-231 breast
# [22] = tested on: MDA-MB-435
# [23] = tested on: MOLT-4 leukemia
# [24] = tested on: NCI-H226 lung
# [25] = tested on: NCI-H23 lung
# [26] = tested on: NCI-H460 lung
# [27] = tested on: NCI-H522 lung
# [28] = tested on: NCI/ADR-RES ovarian
# [29] = tested on: OVCAR-3 ovarian
# [30] = tested on: OVCAR-4 ovarian
# [31] = tested on: OVCAR-5 ovarian
# [32] = tested on: OVCAR-8 ovarian
# [33] = tested on: PC-3 prostate
# [34] = tested on: RXF 393 renal
# [35] = tested on: SF-268 CNS
# [36] = tested on: SF-295 CNS
# [37] = tested on: SK-MEL-2 melanoma
# [38] = tested on: SK-MEL-28 melanoma
# [39] = tested on: SK-MEL-5 melanoma
# [40] = tested on: SK-OV-3 ovarian
# [41] = tested on: SN12C renal
# [42] = tested on: SNB-19 CNS
# [43] = tested on: SR leukemia
# [44] = tested on: SW-620 colon
# [45] = tested on: T-47D breast
# [46] = tested on: TK-10 renal
# [47] = tested on: U251 CNS
# [48] = tested on: UACC-257 melanoma
# [49] = tested on: UACC-62 melanoma
# [50] = tested on: UO-31 renal
structure (smiles),measurement,setting,value
Cc1cc(-c2nc3sc(C)cn3c2/C=N/N=C(N)N)c(C)s1,GI50,[1],8.68 µM
same,TGI,[1],21.1 µM
same,GI50,[2],21.5 µM
same,TGI,[2],48.9 µM
same,GI50,[3],18.7 µM
same,TGI,[3],34.4 µM
same,GI50,[4],17.4 µM
same,TGI,[4],32.4 µM
same,GI50,[5],2.49 µM
same,TGI,[5],5.06 µM
same,GI50,[6],4.76 µM
same,TGI,[6],19 µM
same,GI50,[7],6.11 µM
same,TGI,[7],23 µM
same,GI50,[8],14.8 µM
same,TGI,[8],30.6 µM
same,GI50,[9],1.73 µM
same,TGI,[9],3.24 µM
same,GI50,[10],1.79 µM
same,TGI,[10],3.37 µM
same,GI50,[11],19.8 µM
same,TGI,[11],40 µM
same,GI50,[12],> 100 µM
same,TGI,[12],> 100 µM
same,GI50,[13],3.17 µM
same,TGI,[13],8.64 µM
same,GI50,[14],3.03 µM
same,TGI,[14],8.21 µM
same,GI50,[15],3.74 µM
same,TGI,[15],20.2 µM
same,GI50,[16],28.8 µM
same,TGI,[16],> 100 µM
same,GI50,[17],> 100 µM
same,TGI,[17],> 100 µM
same,GI50,[18],2.68 µM
same,TGI,[18],9.62 µM
same,GI50,[19],13.3 µM
same,TGI,[19],29.8 µM
same,GI50,[20],1.7 µM
same,TGI,[20],3.11 µM
same,GI50,[21],3.49 µM
same,TGI,[21],16.3 µM
same,GI50,[22],2.13 µM
same,TGI,[22],4.79 µM
same,GI50,[23],> 100 µM
same,TGI,[23],> 100 µM
same,GI50,[24],20.8 µM
same,TGI,[24],40.8 µM
same,GI50,[25],14.6 µM
same,TGI,[25],28.2 µM
same,GI50,[26],6.18 µM
same,TGI,[26],21.5 µM
same,GI50,[27],25.7 µM
same,TGI,[27],> 100 µM
same,GI50,[28],14.6 µM
same,TGI,[28],29.2 µM
same,GI50,[29],2.04 µM
same,TGI,[29],9.56 µM
same,GI50,[30],10.7 µM
same,TGI,[30],27.4 µM
same,GI50,[31],13.2 µM
same,TGI,[31],28.1 µM
same,GI50,[32],17.6 µM
same,TGI,[32],43.6 µM
same,GI50,[33],3.65 µM
same,TGI,[33],15.5 µM
same,GI50,[34],15 µM
same,TGI,[34],32.7 µM
same,GI50,[35],13.6 µM
same,TGI,[35],28.9 µM
same,GI50,[36],1.78 µM
same,TGI,[36],3.85 µM
same,GI50,[37],40.8 µM
same,TGI,[37],> 100 µM
same,GI50,[38],2.02 µM
same,TGI,[38],4.12 µM
same,GI50,[39],1.89 µM
same,TGI,[39],3.8 µM
same,GI50,[40],20.9 µM
same,TGI,[40],39.1 µM
same,GI50,[41],14 µM
same,TGI,[41],28.3 µM
same,GI50,[42],18.2 µM
same,TGI,[42],36.2 µM
same,GI50,[43],> 100 µM
same,TGI,[43],> 100 µM
same,GI50,[44],3.33 µM
same,TGI,[44],18.4 µM
same,GI50,[45],3.56 µM
same,TGI,[45],13.8 µM
same,GI50,[46],6.12 µM
same,TGI,[46],18.6 µM
same,GI50,[47],11.2 µM
same,TGI,[47],25.5 µM
same,GI50,[48],22.2 µM
same,TGI,[48],44.2 µM
same,GI50,[49],16.5 µM
same,TGI,[49],30.5 µM
same,GI50,[50],32.7 µM
same,TGI,[50],> 100 µM
